# Tests used:
# Format in all cases: in vivo
# [1] = test system: adult female houseflies (Musca domestica); assay: Housefly mortality on treated filter papers (Examples 32-40); conditions: 100 milligrams per square foot, after 24 hours
# From the text: 9 centimeter diameter filter papers treated with aqueous acetone solutions of each of the compounds
# at rates equivalent to 100 milligrams per square foot (100 mgm./0.09 m^2.) of active ingredient were placed in 9 centimeter diameter Petri dishes. Batches of adult female houseflies (Musca domestica) lightly anaesthetised with carbon dioxide were then introduced into the dishes and a glass lid placed over each.
# [2] = test system: adult female yellow fever mosquitos (Aedes aegypti); assay: Yellow fever mosquitos in coated glass tubes (Examples 61-64); conditions: 3 mg of active ingredient per square foot, after 24 hours
# Procedure: Acetone solutions of the compounds
# were applied to the inside walls of glass tubes 9 cm high by 4.5 cm diameter so that after the acetone had evaporated a coating equivalent to 3 mg of active ingredient per square foot remained. Batches of adult female yellow fever mosquitos (Aedes aegypti) were then caged in the tubes.
# [3] = test system: first instar larvae of the sheep blowfly (Lucilia sericata); assay: Sheep blowfly larvae on treated cotton wool pads (Examples 53-60); conditions: 1/2 ml. of acetone solution on cotton wool pads, after 24 hours
# Procedure: Cylindrical pads of cotton wool, approximate diameter 1 cm., length 2 cms. were treated with 1/2 ml. of acetone solutions of the following carbamates:
# After leaving for 12 hours to dry, the pads were treated with 1 ml. of sheep blood serum and infested with 20 first instar larvae of the sheep blowfly (Lucilia sericata). After 24 hours, the blowflies were examined and found to be all dead; insects similarly infested on untreated pads were unaffected.
# [4] = test system: second instar larvae of the cabbage white butterfly (Pieris brassicae); assay: Cabbage white butterfly larvae on treated cabbage leaf discs (Examples 41-48); conditions: 10, 5, 1, 0.5 and 0.25 pounds per acre, three replications, after 48 hours
# From the text: 7 centimeter diameter circular discs of cabbage leaves were painted with 1 milliliter aqueous acetone solutions of each of the following compounds:
# in each case at concentrations equivalent to leaf applications of 10, 5, 1, 0.5 and 0.25 pounds per acre (11.2, 5.6, 1.12, 0.56 and 0.28 kg./hectare) of active ingredient. When the deposit on the leaf discs had dried, each leaf disc was placed in a 9 centimeter diameter Petri dish, infested with ten second instar larvae of the cabbage white butterfly (Pieris brassicae) and covered with a glass lid. Three replications were made with each compound at each concentration level.
# [5] = test system: German cockroaches (Blattella germanica); assay: Persistency against German cockroaches on treated glass plates (Example 74); conditions: 100 mg/ft^2 (1.065 g/m^2), 2nd stage nymphs, 7 day intervals until less than 50% mortality
# Procedure: Persistency was measured against German cockroaches (Blattella germanica), or the order Orthoptera, by treating glass plates with acetone solutions of the compunds listed below to produce a deposit equivalent to 100 mg/ft^2 (1.065 g/m^2), and caging 2nd stage nymph cockroaches on these surfaces for 48 hours at 7 day intervals until less than 50% mortality was recorded.
# [6] = test system: adult female houseflies (Musca domestica); assay: LC50 against adult female houseflies on filter papers (Example 70)
# Procedure: (§1) If complete kill was obtained at the highest dosage rate, the test was repeated using a logarithmically reducing dose regime until less than 50% mortality was recorded. The LC50 was then calculated from the line of best fit from the data plotted on log/provit analysis paper.
# (§2) Similarly LC50 values were obtained against various pests as described in Examples 70-73 where, however, the LC50 values are abbreviated on a 0-6 scale where
# LC50 values were obtained for each of Compounds 1, 2, 3, 4, 5 and 6 against adult female houseflies (Musca domestica), of the order Diptera. The tests were carried out by adding acetone solutions of the compounds to 9 cm diameter filter papers in the base of 9 cm diameter crystallising dishes, placing the houseflies in the dishes after the acetone had evaporated, closing the dishes with Petri dish lids and counting the mortality after 24 hours. The highest dosage rate employed was 1000 mg/ft^2 (10.65 g/m^2).
# [7] = test system: 2nd stage nymph of the German cockroach (Blattella germanica); assay: LC50 against German cockroach nymphs in treated glass tubes (Example 69)
# Procedure: Compounds 2 and 4 and also 2,2-dimethyl-1,3- benzodioxol-4-yl N-methylcarbamate(compound 5) and 2,2-dimethyl-1,3-benzodioxol-4-yl N-acetyl-N-methylcarbamate (compound 6) were tested for activity against the 2nd stage nymph of the German cockroach (Blattella germanica), of the order Orthoptera, by treating the walls of glass tubes (9.0 cm high × 4.5 cm diameter) with acetone solutions of the compounds and after the acetone had evaporated caging the insects in the tubes for 48 hours. The highest dosage rate employed was 50 mg/ft^2 (532 mg/m^2).
# as §1
# The LC50 values are abbreviated on a 0-6 scale where
# [8] = test system: larvae of the sheep maggot fly (Lucilia sericata); assay: LC50 against sheep maggot fly larvae on dental rolls (Example 71)
# Procedure: as §1, §2
# Similarly, LC50 values were obtained for each of Compounds 1, 2, 3, 4, 5 and 6 against larvae of the sheep maggot fly (Lucilia sericata), of the order Diptera. The tests were carried out by placing newly hatched larvae on dental rolls contained in glass vials and soaked with 1 ml of blood serum containing the compound. The mortality was assessed after 24 hours. The highest dosage rate employed was 1000 ppm.
# [9] = test system: yellow fever mosquito (Aedes aegypti); assay: Persistency against yellow fever mosquito on treated glass plates (Example 75); conditions: 100 mg/ft^2 (1.065 g/m^2), adult female mosquitos, 7 day intervals until less than 50% mortality
# Procedure: Persistency was measured against yellow fever mosquito (Aedes aegypti), of the order Diptera, by treating glass plates with acetone solutions of the compounds listed below to produce a deposit equivalent to 100 mg/ft^2 (1.065 g/m^2), and caging adult female mosquitos on these surfaces for 24 hours at 7 day intervals until less than 50% mortality was recorded.
# [10] = test system: adult apterous vetch aphids (Megoura viciae); assay: Vetch aphids on sprayed field beans (Examples 49 and 50); conditions: 100 parts per million, 50 gallons per acre, 24 hours
# From the text: Aqueous suspensions containing 100 parts per million of 2,2-dimethyl-1,3-benzodioxol-4-yl N-methylcarbamate and 2,2-dimethyl-1,3-benzodioxol-4-yl N-acetyl-N-methylcarbamate were sprayed at a rate equivalent to 50 gallons per acre (585 liters per hectare) on young field beans (Vicia faba) infested with adult apterous vetch aphids (Megoura viciae). After treatment the plants were enclosed in glass cages with gauze tops for ventilation.
# [11] = test system: adult red spider mites (Tetranychus telarius); assay: LC50 against adult red spider mites on sprayed French beans (Example 73); conditions: 48 h, read-out: LC50 value
# Procedure: as §1, §2
# Similarly, LC50 values were obtained for each of Compounds 1, 2, 4, 5 and 6 against adult red spider mites (Tetranychus telarius), of the order Acarina. The tests were carried out by spraying infected French beans with a 50% acetone water solution of the compound, containing 500 ppm of Lissapol NX as a wetting agent, and recording the mortality after 48 hours. The highest dosage rate employed was 1000 ppm which is equivalent to 10 lb/acre (11.20 kg/ha).
# [12] = test system: first stage larvae of the cattle tick, Boophilus microplus; assay: Cattle tick larvae in treated filter paper packets (Example 65); conditions: 30 parts per million, 25° C, 24 hours
# Procedure: Filter papers, diameter 9 cm., were treated with 1 ml. of acetone solutions containing 30 parts per million of 2,2-dimethyl-1,3-benzodioxol-4-yl N-methylcarbamate or 7-chloro-2,2-dimethyl-1,3-benzodioxol-4-yl N-methylcarbamate. When they had dried, they were folded into quadrant shaped packets, infested with 20 first stage larvae of the cattle tick, Boophilus microplus, closed with a metal clip and kept at 25° C for 24 hours.
structure (smiles),measurement,setting,value
"CC(=O)N(C)C(=O)Oc1cc(C)cc2c1OC(C)(C)O2 [2,2,6-trimethyl-1,3-benzodioxol-4-yl N-acetyl-N-methylcarbamate]",mortality of houseflies,[1],all found to be dead
"CC(=O)N(C)C(=O)Oc1cccc2c1OC(C)(C(C)(C)C)O2 (centres unmarked) [2-methyl-2-t-butyl-1,3-benzodioxol-4-yl N-acetyl-N-methylcarbamate]",mortality of yellow fever mosquitos,[2],all found to be dead
"CNC(=O)Oc1cccc2c1OCO2 [1,3-benzodioxol-4-yl N-methylcarbamate]",mortality of houseflies,[1],all found to be dead
"CNC(=O)Oc1cccc2c1OC(C)(C(C)(C)C)O2 (centres unmarked) [2-tert-butyl-2-methyl-1,3-benzodioxol-4-yl N-methylcarbamate]",mortality of sheep blowfly larvae,[3],all dead
"CNC(=O)Oc1cc(C)cc2c1OC(C)(C)O2 [2,2,6-trimethyl-1,3-benzodioxol-4-yl N-methylcarbamate]",mortality of sheep blowfly larvae,[3],all dead
"CCC1(CC)Oc2cccc(OC(=O)N(C)C(C)=O)c2O1 [2,2-diethyl-1,3-benzodioxol-4-yl N-acetyl-N-methylcarbamate]",mortality of yellow fever mosquitos,[2],all found to be dead
"CC(=O)N(C)C(=O)Oc1cccc2c1OC(C)O2 (centres unmarked) [2-methyl-1,3-benzodioxol-4-yl N-acetyl-N-methylcarbamate]",mortality of houseflies,[1],all found to be dead
"C=CCN(C(C)=O)C(=O)Oc1cccc2c1OC(C)(C)O2 [2,2-dimethyl-1,3-benzodioxol-4-yl N-acetyl-N-allylcarbamate]",mortality of houseflies,[1],all found to be dead
"C=CCNC(=O)Oc1cccc2c1OC(C)(C)O2 [2,2-dimethyl-1,3-benzodioxol-4-yl N-allylcarbamate]",mortality of cabbage white butterfly larvae,[4],all found to be dead
"CCCC(=O)N(C)C(=O)Oc1cccc2c1OCO2 [1,3-benzodioxol-4-yl N-butyryl-N-methylcarbamate]",mortality of houseflies,[1],all found to be dead
"CC(=O)N(C)C(=O)Oc1cccc2c1OC1(CCCC1)O2 [2,2-tetramethylene-1,3-benzodioxol-4-yl N-acetyl-N-methylcarbamate]",mortality of yellow fever mosquitos,[2],all found to be dead
"CCc1ccc(OC(=O)NC)c2c1OC(C)(C)O2 [7-ethyl-2,2-dimethyl-1,3-benzodioxol-4-yl N-methylcarbamate]",mortality of sheep blowfly larvae,[3],all dead
"CC(=O)N(C)C(=O)Oc1cccc2c1OC(C)(C)O2 [Compound 6, 2,2-dimethyl-1,3-benzodioxol-4-yl N-acetyl-N-methylcarbamate]",Persistency,[5],8 to 14 days
same,LC50 value,"[6]; adult female houseflies, 24 hours, 0-6 scale (mg/ft^2)",3 (30-99 mg/ft^2 (0.32 - 1.06 g/m^2))
same,activity against houseflies (in words),[6]; compared with compound 5,worse
same,LC50 value,"[7]; 2nd stage nymph German cockroach, 48 hours, 0-6 scale",1 (15-50 mg/ft^2 (160-532 mg/m^2))
same,activity against cockroaches (in words),[7]; cockroaches,low activity against cockroaches
same,LC50,"[8]; Lucilia sericata, 24 h, read-out: LC50 value",30 to 99 µg/mL
same,activity against sheep maggot fly (in words),[8]; compared with compound 5,worse
same,mortality of cabbage white butterfly larvae,[4],all found to be dead
same,mortality of houseflies,[1],all found to be dead
same,Persistency,[9],15 to 21 days
same,kill of vetch aphids,[10],complete kill of the aphids in 24 hours
same,LC50,[11],100 to 299 µg/mL
"CCC1(CC)Oc2cccc(OC(=O)NC)c2O1 [2,2-diethyl-1,3-benzodioxol-4-yl N-methylcarbamate]",mortality of sheep blowfly larvae,[3],all dead
"CNC(=O)Oc1ccc(C)c2c1OC(C)(C)O2 [2,2,7-trimethyl-1,3-benzodioxol-4-yl N-methylcarbamate]",mortality of sheep blowfly larvae,[3],all dead
same,mortality of cabbage white butterfly larvae,[4],all found to be dead
"CNC(=O)Oc1cccc2c1OC1(CCCC1)O2 [2,2-tetramethylene-1,3-benzodioxol-4-yl N-methylcarbamate]",mortality of cabbage white butterfly larvae,[4],all found to be dead
"CC(=O)N(C)C(=O)Oc1cccc2c1OC1(CCCCC1)O2 [2,2-pentamethylene-1,3-benzodioxol-4-yl N-acetyl-N-methylcarbamate]",mortality of yellow fever mosquitos,[2],all found to be dead
"C#CCNC(=O)Oc1cccc2c1OC(C)(C)O2 [2,2-dimethyl-1,3-benzodioxol-4-yl N-propargylcarbamate]",mortality of cabbage white butterfly larvae,[4],all found to be dead
"CCC1(C)Oc2cccc(OC(=O)NC)c2O1 (centres unmarked) [2-ethyl-2-methyl-1,3-benzodioxol-4-yl N-methylcarbamate]",mortality of sheep blowfly larvae,[3],all dead
same,mortality of cabbage white butterfly larvae,[4],all found to be dead
"CNC(=O)Oc1ccc(Cl)c2c1OC(C)(C)O2 [7-chloro-2,2-dimethyl-1,3-benzodioxol-4-yl N-methylcarbamate]",mortality of cattle tick larvae,[12],all the ticks in the treated filter papers were dead
"C#CCN(C(C)=O)C(=O)Oc1cccc2c1OC(C)(C)O2 [2,2-dimethyl-1,3-benzodioxol-4-yl N-acetyl-N-propargylcarbamate]",mortality of cabbage white butterfly larvae,[4],all found to be dead
"CNC(=O)Oc1cccc2c1OC(C)O2 (centres unmarked) [2-methyl-1,3-benzodioxol-4-yl N-methylcarbamate]",mortality of sheep blowfly larvae,[3],all dead

# Reference: US4056625A, “Pesticidal compositions containing benzodioxole derivatives and methods of combating pests” (priority 1972, dated 1977)
